Test results from patent US9796700B2 (Celgene CAR LLC, priority 2013, dated 2017).

Biological target: Erk1 (Homo sapiens (Human), UniProt P27361)
Assay: Protein Mass Modification Assay (intact protein MALDI)
Type: binding
Summary of the method: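 Human Erk1 was incubated 60 min at room temperature with a 10-fold molar excess of compound, then analysed as intact protein by MALDI with sinapinic acid matrix. The centroid mass shift versus untreated protein was divided by compound molecular weight to give percent modified protein.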

Sequence of Erk1 (P27361 whole entry, looked up): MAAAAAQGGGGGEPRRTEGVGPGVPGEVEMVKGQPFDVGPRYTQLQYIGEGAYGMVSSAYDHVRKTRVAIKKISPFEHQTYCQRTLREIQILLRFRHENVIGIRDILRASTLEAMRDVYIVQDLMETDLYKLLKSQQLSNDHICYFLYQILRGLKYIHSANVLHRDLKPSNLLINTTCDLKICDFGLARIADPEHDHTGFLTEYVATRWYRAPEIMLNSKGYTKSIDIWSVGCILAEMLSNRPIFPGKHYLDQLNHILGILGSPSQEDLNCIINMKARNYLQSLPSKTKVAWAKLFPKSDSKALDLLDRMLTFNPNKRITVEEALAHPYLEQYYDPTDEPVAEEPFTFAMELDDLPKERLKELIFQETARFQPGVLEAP

Row | ERK1 Mass Mod (%) | Compound
1 | E (provided a mass modification of ≧70%) | C=CC(=O)Nc1ccccc1Nc1nc(Nc2ccnc(F)c2)ncc1C(F)(F)F [Compound I-287, N-(2-((2-((2-Fluoropyridin-4-yl)amino)-5-(trifluoromethyl)pyrimidin-4-yl)amino)phenyl)acrylamide]
2 | E (provided a mass modification of ≧70%) | C=CC(=O)Nc1cc(C)ccc1Nc1nc(Nc2ccnc(F)c2)ncc1C(F)(F)F [Compound I-288, N-(2-((2-((2-Fluoropyridin-4-yl)amino)-5-(trifluoromethyl)pyrimidin-4-yl)amino)-5-methylphenyl)acrylamide]
3 | E (provided a mass modification of ≧70%) | C=CC(=O)Nc1ccccc1Nc1nc(Nc2ccnnc2)ncc1C(F)(F)F [Compound I-293, N-(2-((2-(Pyridazin-4-ylamino)-5-(trifluoromethyl)pyrimidin-4-yl)amino)phenyl) acrylamide]
4 | E (provided a mass modification of ≧70%) | C=CC(=O)Nc1cc(C)ccc1Nc1nc(Nc2cc(C)nc(OC)c2)ncc1C(F)(F)F [Compound I-295, N-(2-((2-((2-methoxy-6-methylpyridin-4-yl)amino)-5-(trifluoromethyl)pyrimidin-4-yl)amino)-5-methylphenyl)acrylamide]
5 | E (provided a mass modification of ≧70%) | C=CC(=O)Nc1cc(C(F)(F)F)ccc1Nc1nc(Nc2cc(OC)ncc2C)ncc1C(F)(F)F [Compound I-323, N-(2-((2-((2-methoxy-5-methylpyridin-4-yl)amino)-5-(trifluoromethyl)pyrimidin-4-yl)amino)-5-(trifluoromethyl)phenyl)acrylamide]
6 | E (provided a mass modification of ≧70%) | C=CC(=O)Nc1cc(C)ccc1Nc1nc(Nc2cc(OC)nc(N3CCN(C)CC3)c2)ncc1C(F)(F)F [Compound I-325, N-(2-((2-((2-methoxy-6-(4-methylpiperazin-1-yl)pyridin-4-yl)amino)-5-(trifluoromethyl)pyrimidin-4-yl)amino)-5-methylphenyl)acrylamide]
7 | E (provided a mass modification of ≧70%) | C=CS(=O)(=O)Nc1cc(C)ccc1Nc1nc(Nc2cc(OC)ncc2C)ncc1C(F)(F)F [Compound I-333, N-(2-((2-((2-methoxy-5-methylpyridin-4-yl)amino)-5-(trifluoromethyl)pyrimidin-4-yl)amino)-5-methylphenyl)ethenesulfonamide]
8 | E (provided a mass modification of ≧70%) | C=CC(=O)Nc1cc(C)ccc1Nc1nc(Nc2cc(OC)nc(N(C)CCOC)c2)ncc1C(F)(F)F [Compound I-336, N-(2-((2-((2-methoxy-6-((2-methoxyethyl)(methyl)amino)pyridin-4-yl)amino)-5-(trifluoromethyl)pyrimidin-4-yl)amino)-5-methylphenyl)acrylamide]
9 | E (provided a mass modification of ≧70%) | C=CC(=O)Nc1cc(C)ccc1Nc1nc(Nc2cc(NC3CC3)nc(OC)c2)ncc1C(F)(F)F [Compound I-337, N-(2-((2-((2-(cyclopropylamino)-6-methoxypyridin-4-yl)amino)-5-(trifluoromethyl)pyrimidin-4-yl)amino)-5-methylphenyl)acrylamide]
10 | E (provided a mass modification of ≧70%) | C=CC(=O)Nc1ccccc1Nc1nc(Nc2cc(OC)cc(OC)c2)ncc1C(F)(F)F [Compound I-338, N-(2-((2-((3,5-dimethoxyphenyl)amino)-5-(trifluoromethyl)pyrimidin-4-yl)amino)phenyl)acrylamide]
11 | E (provided a mass modification of ≧70%) | C=CC(=O)Nc1ccccc1Nc1nc(Nc2cc(OC)ccc2C)ncc1C(F)(F)F [Compound I-340, N-(2-((2-((5-methoxy-2-methylphenyl)amino)-5-(trifluoromethyl)pyrimidin-4-yl)amino)phenyl)acrylamide]
12 | E (provided a mass modification of ≧70%) | C=CC(=O)Nc1cc(C)ccc1Nc1nc(Nc2cc(OC)ccc2C)ncc1C(F)(F)F [Compound I-341, N-(2-((2-((5-methoxy-2-methylphenyl)amino)-5-(trifluoromethyl)pyrimidin-4-yl)amino)-5-methylphenyl)acrylamide]
13 | E (provided a mass modification of ≧70%) | C=CC(=O)Nc1cc(C)ccc1Nc1nc(Nc2cc(OC)nc(N(C)C3CC3)c2)ncc1C(F)(F)F [Compound I-342, N-(2-((2-((2-(cyclopropyl(methyl)amino)-6-methoxypyridin-4-yl)amino)-5-(trifluoromethyl)pyrimidin-4-yl)amino)-5-methylphenyl)acrylamide]
14 | E (provided a mass modification of ≧70%) | C#CC(=O)Nc1cc(C)ccc1Nc1nc(Nc2cc(OC)ncc2C)ncc1C(F)(F)F [Compound I-345, N-(2-((2-((2-methoxy-5-methylpyridin-4-yl)amino)-5-(trifluoromethyl)pyrimidin-4-yl)amino)-5-methylphenyl)propiolamide]

Continued, compound first:

Row | Compound | ERK1 Mass Mod (%)
15 | C=CC(=O)Nc1cc(C)ccc1Nc1nc(Nc2cc(NCCOC)nc(OC)c2)ncc1C(F)(F)F [Compound I-294, N-(2-((2-((2-methoxy-6-((2-methoxyethyl)amino)pyridin-4-yl)amino)-5-(trifluoromethyl)pyrimidin-4-yl)amino)-5-methylphenyl)acrylamide] | E (key: E: provided a mass modification of ≧70%; F: provided a mass modification of 31-69%; G: proived a mass modification ≦30%)
16 | C=CC(=O)Nc1ccccc1Nc1nc(Nc2cc(C(N)=O)c(OCCCNC(=O)CCCC(=O)NCCCOCCOCCOCCCNC(=O)CCCC[C@@H]3SC[C@@H]4NC(=O)N[C@@H]43)cc2C)ncc1Cl [Compound I-299, N^1-(3-(4-((4-((2-acrylamidophenyl)amino)-5-chloropyrimidin-2-yl)amino)-2-carbamoyl-5-methylphenoxy)propyl)-N^5-(15-oxo-19-((3aS,4S,6aR)-2-oxohexahydro-1H-thieno[3,4-d]imidazol-4-yl)-4,7,10-trioxa-14-azanonadecyl)glutaramide] | E (provided a mass modification of ≧70%)
17 | C=CC(=O)Nc1ccccc1Nc1nc(NC2CCN(C(=O)CCCC(=O)NCCCOCCOCCOCCCNC(=O)CCCC[C@@H]3SC[C@@H]4NC(=O)N[C@@H]43)CC2)ncc1Cl [Compound I-300, 5-(4-((4-((2-acrylamidophenyl)amino)-5-chloropyrimidin-2-yl)amino)piperidin-1-yl)-5-oxo-N-(15-oxo-19-((3aS,4S,6aR)-2-oxohexahydro-1H-thieno[3,4-d]imidazol-4-yl)-4,7,10-trioxa-14-azanonadecyl)pentanamide] | E (provided a mass modification of ≧70%)
18 | C=CC(=O)Nc1ccccc1Nc1nc(Nc2ccc(NC(=O)CCCC(=O)NCCCOCCOCCOCCCNC(=O)CCCC[C@H]3SC[C@H]4NC(=O)N[C@H]43)cc2OC)ncc1Cl [Compound I-301, N^1-(4-((4-((2-acrylamidophenyl)amino)-5-chloropyrimidin-2-yl)amino)-3-methoxyphenyl)-N^5-(15-oxo-19-((3aR,4R,6aS)-2-oxohexahydro-1H-thieno[3,4-d]imidazol-4-yl)-4,7,10-trioxa-14-azanonadecyl)glutaramide] | E (provided a mass modification of ≧70%)
19 | C=CC(=O)Nc1ccccc1Nc1nc(Nc2cc(NC(=O)CCCC(=O)NCCCOCCOCCOCCCNC(=O)CCCC[C@@H]3SC[C@@H]4NC(=O)N[C@@H]43)cc(C(N)=O)c2)ncc1Cl [Compound I-304, N^1-(3-((4-((2-acrylamidophenyl)amino)-5-chloropyrimidin-2-yl)amino)-5-carbamoylphenyl)-N-(15-oxo-19-((3aS,4S,6aR)-2-oxohexahydro-1H-thieno[3,4-d]imidazol-4-yl)-4,7,10-trioxa-14-azanonadecyl)glutaramide] | G (proived a mass modification ≦30%)
20 | C=CC(=O)Nc1ccccc1Nc1nc(Nc2cc(C(N)=O)c(OCCCNC(=O)C#CC)cc2C)ncc1Cl [Compound I-305, 5-((4-((2-acrylamidophenyl)amino)-5-chloropyrimidin-2-yl)amino)-2-(3-(but-2-ynamido)propoxy)-4-methylbenzamide] | E (provided a mass modification of ≧70%)
21 | C=CC(=O)Nc1ccccc1Nc1nc(Nc2ccc(N3CCN(C(=O)CCCC(=O)NCCCOCCOCCOCCCNC(=O)CCCC[C@@H]4SC[C@@H]5NC(=O)N[C@@H]54)CC3)cc2OC(F)F)ncc1Cl [Compound I-306, 5-(4-(4-((4-((2-acrylamidophenyl)amino)-5-chloropyrimidin-2-yl)amino)-3-(difluoromethoxy)phenyl)piperazin-1-yl)-5-oxo-N-(15-oxo-19-((3aS,4S,6aR)-2-oxohexahydro-1H-thieno[3,4-d]imidazol-4-yl)-4,7,10-trioxa-14-azanonadecyl)pentanamide] | E (provided a mass modification of ≧70%)
22 | CC(=O)N1CCC[C@H](Nc2ncc(C(F)(F)F)c(N[C@H]3[C@@H](C(N)=O)[C@@H]4C=C[C@H]3C4)n2)C1 [Compound I-308, (1S,2S,3R,4R)-3-((2-(((S)-1-acetylpiperidin-3-yl)amino)-5-(trifluoromethyl)pyrimidin-4-yl)amino)bicyclo[2.2.1]hept-5-ene-2-carboxamide] | G (proived a mass modification ≦30%)
23 | COc1cc(N2CCOCC2)ccc1Nc1ncc(C(C)=O)c(Nc2ccccc2N)n1 [Compound I-313, 1-(4-((2-aminophenyl)amino)-2-((2-methoxy-4-morpholinophenyl)amino)pyrimidin-5-yl)ethanone] | G (proived a mass modification ≦30%)
24 | C=CC(=O)Nc1ccccc1Nc1nc(Nc2ccc(N(CC)C(C)=O)cc2C(F)(F)F)ncc1Cl [Compound I-320] | F (provided a mass modification of 31-69%)
25 | C=CC(=O)Nc1cc(C)ccc1Nc1nc(Nc2cc(P(C)(C)=O)ncc2C)ncc1C(F)(F)F [Compound I-343, N-(2-((2-((2-(dimethylphosphoryl)-5-methylpyridin-4-yl)amino)-5-(trifluoromethyl)pyrimidin-4-yl)amino)-5-methylphenyl)acrylamide] | F (provided a mass modification of 31-69%)
